Laboratory results as given in patent US5321041A, “Diphenylpyrrolylfuran derivatives” (Nihon Iyakuhin Kogyo Co., Ltd., priority 1992, dated 1994).

Experiments:
[1] = test system: lipid peroxidation (crude homogenate prepared from brain tissues of Wistar rats); assay: Inhibitory activity on lipid peroxidation (anti-oxidation activity); assay type: biochemical; conditions: rat brain homogenate, 37° C., 30 minutes; malondialdehyde, 532 nm
Method: EXPERIMENT 1: INHIBITORY ACTIVITY ON LIPID PEROXIDATION (ANTI-OXIDATION ACTIVITY)
The captioned activity was evaluated according to the method described by Kakihana et al., Nihon Yakurigaku Zasshi (Folia Pharmacologica Japonica), 80, p. 225, 1982. To a 1 ml of a crude homogenate prepared from brain tissues of Wistar rats, 10 μl of a solution of test drug in dimethyl sulfoxide was added, and after pre-incubation under ice-cooling for 10 minutes, the mixture was subjected to a reaction at 37° C. for 30 minutes. The reaction was stopped by adding 200 μl of 35% perchloric acid to the mixture and then the mixture was centrifuged. To a 1 ml of the supernatant obtained, 0.5 ml of 0.5% thiobarbituric acid was added and the mixture was heated under a boiling water bath for 15 minutes. The mixture was cooled to room temperature and absorbance of the mixture at 532 nm was measured. The inhibitory rate was obtained using the amount of malondialdehyde generated by the solvent-treated control, which equals to 100%, and 50% median inhibitory concentration (IC50) was calculated according to the probit method as indexes of anti-oxidation activity.

[2] = target: T1, cyclooxygenase (Ovis aries, UniProt P05979); assay: Inhibitory activity on cyclooxygenase; assay type: biochemical; conditions: PGE2 generation, sheep seminal vesicle microsome, 16 μM 14C-arachidonic acid, pH 8.3
T1 construct: Sheep seminal vesicle microsome fraction (Funakoshi) was used as an enzyme sample; purchased Funakoshi; host or cells: sheep seminal vesicle microsome fraction
T1 sequence (P05979 25-600): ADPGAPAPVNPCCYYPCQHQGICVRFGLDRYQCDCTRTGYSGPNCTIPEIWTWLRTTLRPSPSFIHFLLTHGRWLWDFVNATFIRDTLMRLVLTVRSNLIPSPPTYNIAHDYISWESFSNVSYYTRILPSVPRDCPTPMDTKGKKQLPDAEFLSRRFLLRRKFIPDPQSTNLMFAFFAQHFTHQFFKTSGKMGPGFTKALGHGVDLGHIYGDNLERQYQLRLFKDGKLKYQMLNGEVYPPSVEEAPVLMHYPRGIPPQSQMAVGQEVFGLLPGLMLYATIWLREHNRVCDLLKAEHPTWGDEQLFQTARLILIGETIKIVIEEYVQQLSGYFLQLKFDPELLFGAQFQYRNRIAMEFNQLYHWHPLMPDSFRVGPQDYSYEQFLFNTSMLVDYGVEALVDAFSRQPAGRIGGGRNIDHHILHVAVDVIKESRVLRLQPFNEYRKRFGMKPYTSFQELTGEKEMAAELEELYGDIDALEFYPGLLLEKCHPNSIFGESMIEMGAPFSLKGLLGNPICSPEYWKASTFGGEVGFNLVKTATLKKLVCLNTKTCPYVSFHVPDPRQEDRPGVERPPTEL
Method: EXPERIMENT 3: INHIBITORY ACTIVITY ON CYCLOOXYGENASE
Sheep seminal vesicle microsome fraction (Funakoshi) was used as an enzyme sample. A solution of a test drug was mixed with a reaction solution (3 μM epinephrine, 3 mM glutathione, and the enzyme fraction in 100 mM Tris-HCI buffer, pH 8.3). The mixture was pre-incubated at 37° C. for 5 minutes, and then 16 μ M^14 C-arachidonic acid was added to the mixture, which was allowed to react for 3 minutes. After the completion of the reaction, the product was immediately extracted, dissolved in chloroform/methanol (2:1) and developed by thin-layer chromatography. Radioactivity of the prostaglandin E2 (PGE2) fraction was measured using a liquid scintillation counter. Inhibitory rate of each drug-treated group against PGE2 generation was obtained in comparison with the solvent-treated control, and IC50 was calculated according to the probit method.

[3] = test system: paw edema induced by carageenin; assay: Inhibitory activity on paw edema induced by carageenin; assay type: in vivo, Wistar rats; conditions: rat, oral, 10 mg/kg, 3 hours after carageenin
Method: EXPERIMENT 4: INHIBITORY ACTIVITY ON PAW EDEMA INDUCED BY CARAGEENIN
Wistar rats (body weight: 110-130 g) starved overnight were orally administered with a test drug suspended in 0.5% CMC-Na, and after one hour, 0.1 ml of 1% carageenin solution (picnin-A, Zushi Kagaku) was subcutaneously injected into the right hind leg paw of each rat. Three hours later, the volume of the paw was determined by means of a plethysmometer (Model 7150, Ugo Basile Co.,Ltd.) and the rate of edema was evaluated in comparison with the volume of the paw before the carageenin injection as 100%. Inhibitory rate of each drug-treated group against edema formation was calculated in comparison with the solvent-treated control.

[4] = test system: auricle edema induced by arachidonic acid; assay: Inhibitory activity on auricle edema induced by arachidonic acid; assay type: in vivo, ddY mice; conditions: mouse, oral, 1 hour after arachidonic acid
Method: EXPERIMENT 5: INHIBITORY ACTIVITY ON AURICLE EDEMA INDUCED BY ARACHIDONIC ACID
[…]. Dermatol. 82, p. 367, 1984. The mice were orally administered with a test drug suspended in 0 5% CMC-Na, and after one hour, 10 μl of arachidonic acid in acetone (50 mg/ml) were applied to front and back surfaces of the left auricles of each mouse. One hours later, the thicknesses of the left and right auricles were measured by means of a dial gauge, and the rate of edema of the left auricle was calculated in comparison with the right auricle (normal). Inhibitory rate of each drug-treated group against edema formation was calculated in comparison with the solvent-treated control.

[5] = test system: auricle edema induced by oxazolone; assay: Effect on auricle edema induced by oxazolone (delayed allergy); assay type: in vivo, ICR mice; conditions: mouse, oral, 10 mg/kg × 2 (30 minutes before, 6 hours after), 24 hours
Method: EXPERIMENT 6: EFFECT ON AURICLE EDEMA INDUCED BY OXAZOLONE (DELAYED ALLERGY)
[…]. The mice were sensitized by the application of 0.1 ml of 0.5% oxazolone in ethanol to shaven abdominal skin. Five days later, inflammation was induced by applying 10 μl of 0.5% oxazolone in acetone to front and back surfaces Of the right auricle. After 24 hours, the thicknesses of the left and right auricles were measured by a dial gauge, and the rate of edema of the right auricle was calculated in comparison with the left auricle (normal). A test drug was suspended in 0.5% CMC--Na and orally administered twice to each mouse , i.e., 30 minutes before and 6 hours after the inflammation-inducing treatment. Inhibitory rate of each drug-treated group against edema was calculated in comparison with the solvent-treated control.

[6] = test system: granuloma formation; assay: Inhibitory activity on granuloma formation (proliferative inflammation); assay type: in vivo, Wistar rats; conditions: rat, oral, 10 mg/kg every day for 8 days
Method: EXPERIMENT 7: INHIBITORY ACTIVITY ON GRANULOMA FORMATION (PROLIFERATIVE INFLAMMATION)
Evaluation was carried out by using Wistar rats (120-140 g) according to the method described by Fujiyoshi et al., Nihon Yakurigaku Zasshi (Folia Pharmacologica Japonica), 87, p. 379, 1986. Back skin of the rat was lightly incised under anesthesia with pentobarbital, and filter paper discs for antibiotic assay (57 mg, 13.0.phi., Whatman) sterilized by autoclave were embedded under the skin at the both axillae. 0.1 ml of a mixture of streptomycin and penicillin G (each 1 mg/ml) was administered dropwise to the incised site and the incised skin was sutured. From the day of the disc embedment, a test drug suspended in 0.5% CMC--Na was orally administered to the rat every day for 8 days. The rat was sacrificed at the day of last administration and granuloma including the filter paper was extirpated from the circumferential tissue and dried at 110° C. overnight. The dry weight of the granuloma was measured and inhibitory rate of each drug-treated group against granulation formation was calculated in comparison with the solvent-treated control.

[7] = test system: ddY mice; assay: Acute toxicity; assay type: in vivo; conditions: mouse, oral, 600 mg/kg, observed for 2 weeks
Excerpt: EXPERIMENT 9: ACUTE TOXICITY

[8] = target: T2, 5-lipoxygenase (Cavia porcellus, UniProt A0A286X958); assay: Inhibitory activity on 5-lipoxygenase; assay type: biochemical, guinea pigs; conditions: 5-HETE generation, 20 μM 14C-arachidonic acid, pH 7.4, 37° C., 10 minutes
T2 construct: crude enzyme fraction prepared from peritoneal exudated cells of guinea pigs; endogenous in cells; host or cells: guinea pig peritoneal exudate cells (induced by intraperitoneal casein), crude enzyme fraction
T2 sequence (A0A286X958 1-674): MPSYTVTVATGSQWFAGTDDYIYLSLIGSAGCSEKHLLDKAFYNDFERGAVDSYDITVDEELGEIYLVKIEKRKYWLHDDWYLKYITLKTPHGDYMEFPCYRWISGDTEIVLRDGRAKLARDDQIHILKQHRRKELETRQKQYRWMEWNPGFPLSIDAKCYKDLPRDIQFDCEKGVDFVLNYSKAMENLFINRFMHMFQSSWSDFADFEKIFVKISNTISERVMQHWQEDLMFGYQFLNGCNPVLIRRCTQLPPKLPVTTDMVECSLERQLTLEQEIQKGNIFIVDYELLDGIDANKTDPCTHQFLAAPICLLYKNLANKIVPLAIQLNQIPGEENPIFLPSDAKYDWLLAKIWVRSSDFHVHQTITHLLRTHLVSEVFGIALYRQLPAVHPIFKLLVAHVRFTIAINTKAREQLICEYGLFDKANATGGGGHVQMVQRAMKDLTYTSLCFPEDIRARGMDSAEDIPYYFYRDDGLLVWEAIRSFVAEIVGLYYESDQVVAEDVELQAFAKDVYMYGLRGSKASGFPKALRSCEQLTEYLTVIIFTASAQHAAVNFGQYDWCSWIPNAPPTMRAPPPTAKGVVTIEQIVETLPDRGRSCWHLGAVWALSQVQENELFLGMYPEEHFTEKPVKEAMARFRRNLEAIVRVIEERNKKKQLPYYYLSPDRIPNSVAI
Method: EXPERIMENT 2: INHIBITORY ACTIVITY ON 5-LIPOXYGENASE
5-Lipoxygenase activity was determined according to the method described by Ochi et al., J. Biol. Chem.,258, p. 5754, 1983 using a crude enzyme fraction prepared from peritoneal exudated cells of guinea pigs which were induced by intraperitoneal injection of 2% case in solution. A solution of a test drug was mixed with a reaction solution (2mM ATP, 1 mM glutathione,and the enzyme fraction in 50 mM phosphate buffer, PH 7.4) and the mixture was pre-incubated at 37° C. for 5 minutes. Calcium chloride (1 mM) and 20 μM^14 C-arachidonic acid were added to the mixture, and then the mixture was subjected to a reaction at 37° C. for 10 minutes. After the completion of the reaction, the product was immediately extracted, dissolved in chloroform/methanol (2:1), and developed by thin-layer chromatography. Radioactivity of the 5-hydroxyeicosatetraenoic acid (5-HETE) fraction was measured using a liquid scintillation counter. Inhibitory rate of each drug-treated group against 5-HETE generation was obtained in comparison with the solvent-treated control, and IC50 was calculated according to the probit method.

| SMILES | IC50 [1] [nM] | IC50 [2] [nM] | Inhibition on Edema (%) ([4]; 30 mg/kg) | also measured |
| --- | --- | --- | --- | --- |
| COc1ccc(-c2cc(-c3cccn3CC(=O)O)oc2-c2ccc(OC)cc2)cc1 [Compound 175] | 3630 | 69 | 50.6 | Inhibition on Edema (%) [3]: 44.1%; Inhibition on Edema (%) [5]: 52.1%; Inhibition on Granuloma (%) [6]: 32.2%; Dead Mice/Total Mice [7]: 1/5 |
| CC(C)c1cc(-c2cc(-c3ccccc3)c(-c3ccccc3)o2)n(CC(=O)O)c1 [Compound 117] | 4830 | – | – | Inhibition on Edema (%) [3]: 50.9% |
| CCCc1ccc(-c2cc(-c3ccc(OC)cc3)c(-c3ccc(OC)cc3)o2)n1CC(=O)O [Compound 195] | – | – | 43.9 | IC50 [8]: 910 nM |
| O=C(O)Cn1cccc1-c1cc(-c2ccccc2)c(-c2ccccc2)o1 [Compound 114] | – | – | 41.9 | – |
| COc1ccc(-c2cc(-c3ccc(C)n3CC(=O)O)oc2-c2ccc(OC)cc2)cc1 [Compound 192] | – | 57 | – | IC50 [8]: 910 nM; Inhibition on Edema (%) [3]: 38.4%; Dead Mice/Total Mice [7]: 0/5 |
| COc1ccc(-c2cc(-c3cc(C(C)C)cn3CC(=O)O)oc2-c2ccc(OC)cc2)cc1 [Compound 188] | 2410 | – | 55.0 | IC50 [8]: 1110 nM; Inhibition on Edema (%) [5]: 44.2%; Inhibition on Granuloma (%) [6]: 29.7%; Dead Mice/Total Mice [7]: 4/5 |
| CC(C)Cc1ccc(C(C)C(=O)O)cc1 (stereo not drawn) [Ibuprofen, reference compound] | – | – | – | Inhibition on Edema (%) ([4]; 100 mg/kg): 0% |
| COc1ccc(-c2cc(-c3cc(C(C)C)cn3CC(=O)O)oc2-c2ccccc2)cc1 [Compound 142] | – | – | – | Inhibition on Edema (%) [3]: 45.4%; Inhibition on Edema (%) [5]: 62.2% |

More lines, main results first:

| IC50 [1] [nM] | IC50 [2] [nM] | SMILES | Inhibition on Edema (%) ([4]; 30 mg/kg) | also measured |
| --- | --- | --- | --- | --- |
| – | 82 | COc1ccc(-c2oc(-c3cccn3CC(=O)O)cc2-c2ccccc2)cc1 [Compound 150] | – | – |
| 3130 | 75 | COc1ccc(-c2oc(-c3cccn3CC(=O)O)c(C)c2-c2ccc(OC)cc2)cc1 [Compound 184] | – | – |
| 2730 | – | CCc1ccc(-c2cc(-c3ccc(OC)cc3)c(-c3ccc(C)cc3)o2)n1CC(=O)O [Compound 165] | – | – |
| 2440 | – | CCOc1ccc(-c2cc(-c3ccc(CC)n3CC(=O)O)oc2-c2ccc(OCC)cc2)cc1 [Compound 217] | – | – |
| 4490 | 111 | COc1ccc(-c2cc(-c3cccn3C(C)C(=O)O)oc2-c2ccc(OC)cc2)cc1 (stereo not drawn) [Compound 176] | 30.6 | Inhibition on Edema (%) [5]: 56.4%; Inhibition on Granuloma (%) [6]: 32.4% |
| 2200 | 95 | CCc1cc(-c2cc(-c3ccc(OC)cc3)c(-c3ccc(OC)cc3)o2)n(CC(=O)O)c1 [Compound 185] | – | IC50 [8]: 1000 nM |
| 3240 | – | COc1ccc(-c2cc(-c3cccn3CCC(=O)O)oc2-c2ccc(OC)cc2)cc1 [Compound 178] | – | – |
